Experimental data as given in patent publication EP2436673A1 (Niaraki, Anna, priority 2010, dated 2012).
pKd: −log10 of the molar value.

Key:
Aβ1-42 monomers = target: T1, Aβ1-42 monomers (Homo sapiens, UniProt P05067); test: Surface Plasmon Resonance (SPR) binding to immobilized Aβ1-42 monomers
T1 construct: The native Aβ1-42 peptide was then obtained from the depsi peptide; made in house; host or cells: chemical peptide synthesis (depsi-peptide, then pH switch)
Protocol: (§1) For these studies we used the ProteOn XPR36 (Biorad) apparatus, which has six parallel flow channels that can be used to uniformly immobilize strips of six "ligands" on the sensor surface. Aβ1-42 "monomers" or fibrils were immobilized in two of these parallel-flow channels of a GLC sensor chip (Biorad) using amine-coupling chemistry. Briefly, after surface activation the peptide solutions (10 µM in acetate buffer pH 4.0) were injected for 5 min at a flow rate of […], and the remaining activated groups were blocked with ethanolamine, pH 8.0. Bovine serum albumin (BSA) was also immobilized in another parallel flow channel, as a reference protein. […] A fourth surface was prepared using the same immobilization procedure but without addition of the peptide ("empty", reference surface).
(§2) The fluidic system of Proteon XPR36 can automatically rotate 90° so that up to six different "analytes" (e.g. different liposomes prepations, or different concentrations of the same preparation) could be injected simultaneously over all the different immobilized molecules.
(§3) ProteOn analysis software (BioRad) was used for the fitting of sensorgrams, to obtain the association and dissociation rate constants of the binding (Kon and Koff) and the corresponding KD value. The simplest 1:1 interaction model (Langmuir model) is used at first.

Aβ1-42 fibrils = target: T2, Aβ1-42 fibrils (Homo sapiens, UniProt P05067); test: Surface Plasmon Resonance (SPR) binding to immobilized Aβ1-42 fibrils
T2 construct: made in house; host or cells: chemical peptide synthesis (depsi-peptide, pH switch, then acid incubation to fibrils)
T2 sequence (P05067 672-713 limits assumed): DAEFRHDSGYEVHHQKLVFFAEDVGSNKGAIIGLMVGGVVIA
Protocol: To prepare Aβ1-42 fibrils, the switched peptide solution was diluted with water to 100 µM, acidified to pH 2.0 with 1 M HCl, and left to incubate for 24 hrs at 37 °C [56].
as §1, §2, §3

Aβ aggregation = conditions: reported in literature; cited from earlier work
[1] = SPR, liposomes 18 at 300 nM exposed curcumin-derivative, plain liposomes at 1360 nM
[2] = additional, fibril-specific binding component, two-sites model

T1 sequence (P05067 672-713 limits assumed): as above

Compound: Nc1c(/N=N/c2ccc(-c3ccc(/N=N/c4cc(S(=O)(=O)O)c5ccccc5c4N)cc3)cc2)cc(S(=O)(=O)O)c2ccccc12 [Congo-Red, reference compound]
- binding to Aβ1-42 monomers (in words) (Aβ1-42 monomers; [1]): only bound to Aβ fibrils but not "monomers"
- binding to Aβ1-42 fibrils (in words) (Aβ1-42 fibrils; [1]): only bound to Aβ fibrils

Compound: COc1cc(/C=C/c2cc(/C=C/c3ccc(O)c(OC)c3)n(CC(=O)NCc3cn(CCOCCOCCO)nn3)n2)ccc1O [TREG, 2-(3,5-bis((E)-4-hydroxy-3-methoxystyryl)-1H-pyrazol-1-yl)-N-((1-(2-(2-(2-hydroxyethoxy)ethoxy)ethyl)-1H-1,2,3-triazol-4-yl)methyl)acetamide]
- pKd (Aβ1-42 monomers; Aβ1-42 monomers, rough estimate from Kon and Koff after global fitting, one-site model): 4.64
- pKd (Aβ1-42 fibrils; [2]): 5.15
- koff (Aβ1-42 fibrils; [2]): 0.001 s⁻¹
- kon (Aβ1-42 fibrils; [2]): 163 M⁻¹ s⁻¹

Compound: COc1cc(/C=C/C(=O)CC(=O)/C=C/c2ccc(O)c(OC)c2)ccc1O [curcumin, Curcumin]
- inhibition of Aβ aggregation (in words) (Aβ aggregation): inhibits Aβ aggregation in the low µM range
